In PMC4820240 (Angewandte Chemie (International ed. in English), 2016):

Tests used:
A549 cells = experiment: Cytotoxicity of CPPs towards A549 cells; assay type: cell-based; conditions: read-out: IC50 A549; toxicity towards A549 cells
HeLa cells = conditions: read-out: IC50 HeLa; toxicity towards HeLa cells
MCF-7 cells = conditions: read-out: IC50 MCF-7; toxicity towards MCF-7 cells
human RBCs = conditions: read-out: EC50 RBCs (hemolysis); freshly isolated human RBCs
[1] = Serum stability in 25% serum solution; conditions: 25% serum solution as a function of time (Figure 4B legend)

Row | SMILES | IC50 (A549 cells) [µM] | IC50 (HeLa cells) [µM] | IC50 (MCF-7 cells) [µM] | EC50 (human RBCs) [µM] | t1/2, serum stability [1] [h]
1 | N=C(N)NCCC[C@H](NC(=O)[C@H](CCCNC(=N)N)NC(=O)[C@H](CCCNC(=N)N)NC(=O)[C@H](CCCNC(=N)N)NC(=O)[C@H](CCCNC(=N)N)NC(=O)[C@H](CCCNC(=N)N)NC(=O)[C@H](CCCNC(=N)N)NC(=O)[C@@H](N)CCCNC(=N)N)C(N)=O [R8] | > 1000 | 269 | 170 | 371 | –
2 | N=C(N)NCCC[C@H](NC(=O)CN)C(=O)N[C@@H](CCCCN)C(=O)N[C@@H](CCCCN)C(=O)N[C@@H](CCCNC(=N)N)C(=O)N[C@@H](CCCNC(=N)N)C(=O)N[C@@H](CCC(N)=O)C(=O)N[C@@H](CCCNC(=N)N)C(=O)N[C@@H](CCCNC(=N)N)C(=O)N[C@@H](CCCNC(=N)N)C(=O)N1CCC[C@H]1C(=O)N1CCC[C@H]1C(=O)N[C@@H](CCC(N)=O)C(N)=O [TAT] | > 1000 | > 1000 | 603 | 269 | 1.7
